Measured values published in EP4792822A1, “USE OF PEPTIDE AMIDE COMPOUND IN PREPARATION OF DRUG FOR […] AND VOMITING” (Haisco Pharmaceutical Group Co., Ltd., priority 2023, dated 2025).

Tested on: subjects undergoing elective laparoscopic abdominal surgery under general anaesthesia
Test: Example 1: phase III, placebo-controlled clinical study of compound 1 injection for postoperative analgesia (morphine rescue; nausea and vomiting recorded)
Assay type: in vivo, patients
Text: This study was a multicentre, randomised, double-blind, placebo-controlled phase III clinical study conducted in China to evaluate the efficacy and safety of compound 1 injection for postoperative analgesia in subjects undergoing elective laparoscopic abdominal surgery under general anaesthesia. […] subjects undergoing elective laparoscopic abdominal surgery under general anaesthesia were enrolled and randomised to two groups: the compound 1 group (136 subjects) and the placebo group (135 subjects). All subjects received an intravenous injection of compound 1 injection or placebo injection within 5 min after the completion of the first NRS score assessment, and the end time of the first postoperative administration was recorded as 0 min. At 8 h and 16 h after the end of the first administration, within a time window of ±15 min, a single corresponding dose of the compound 1 injection or placebo injection was administered intravenously to the subjects.
Resting NRS score assessments were performed in subjects within 5 min before the first postoperative administration, and at 15 min ± 5 min, 30 min ± 5 min, 1 h ± 5 min, 2 h ± 15 min, 4 h ± 15 min, 8 h (within 30 min before the second postoperative administration), 12 h ± 30 min, 16 h (within 30 min before the last postoperative administration), 20 h ± 30 min, and 24 h ± 1 h after the first postoperative administration. The NRS score for resting pain refers to the NRS score assessed when the subject is at rest (e.g., sitting or lying still). If the subject was unconscious at a scheduled NRS assessment time point, the score was recorded as follows: if the previous NRS score was ≥ 2, the current NRS score was recorded as 2; if the previous NRS score was < 2, the current NRS score was recorded as the previous score. Meanwhile, it was documented that the subject was unconscious at the time of assessment.
A morphine injection was administered via intravenous injection for rescue treatment if the resting pain NRS score was ≥ 4 at any pain assessment time point after the first postoperative administration, or if the subject complained of pain at any time point and the resting pain NRS score was ≥ 4. It was recommended that the time from the subject's NRS assessment to actual administration of morphine injection be ≤ 30 min; an initial intravenous dose of 3 mg be administered, followed by additional doses as needed. It was also recommended that the interval between two rescue treatments be ≥ 2 h and that the interval between rescue medication and study drug administration be ≥ 1 h.
Prophylactic antiemetic treatment was prohibited during the study. After the first postoperative administration, the investigator administered antiemetic agents based on the occurrence of nausea and vomiting in the subject, and the dosage of the antiemetic agents was recorded. Tropisetron was the preferred antiemetic agent (an initial intravenous dose of 2.5 mg, followed by additional doses as needed, not to exceed 10 mg within 24 h). If tropisetron was insufficiently effective, other agents were used by the investigator in accordance with routine clinical practice.
Abdominal surgery, female sex, non-smoking status, and postoperative opioid use are known as risk factors leading to postoperation nausea and vomiting (PONV). Two studies of compound 1 injection for postoperative analgesia after abdominal surgery were completed. Morphine (Example 1) and flurbiprofen axetil (Example 2) were used as rescue analgesic agents in the two studies, respectively, and prophylactic antiemetic treatment was prohibited during the studies. The study results were summarised as follows.

[1] = Example 1, No morphine use (no rescue analgesia), N = 91
[2] = Example 1, No morphine use, listed as compound 1
[3] = Example 1, Overall, safety analysis set, N = 136
[4] = Example 1, Overall, safety analysis set, N = 136, listed as compound 1
[5] = within 0-12 h and 0-24 h after the first postoperative administration, compared with placebo
[6] = within 0-24 h after the first administration, compared with placebo

SMILES: CC(=O)N1CC2(CCN(C(=O)[C@@H](CCCCN)NC(=O)[C@@H](CC(C)C)NC(=O)[C@@H](Cc3ccccc3)NC(=O)[C@H](N)Cc3ccccc3)CC2)C1 [Compound 1, (2R)-N-[(1R)-1-(2-acetyl-2,7-diazaspiro[3.5]nonane-7-carbonyl)-5-amino-pentyl]-2-[[(2R)-2-[[(2R)-2-amino-3-phenyl-propionyl]amino]-3-phenylpropionyl]amino]-4-methyl-pentanamide]
- overall safety and tolerability (Example 1): good overall safety and tolerability
- Change in incidence of nausea relative to placebo (Example 1, No morphine use): 25.7% reduction
- Change in incidence of vomiting relative to placebo (Example 1, No morphine use): 20.1% reduction
- Nausea (incidence) [1]: 16.5%
- Vomiting (incidence) [1]: 18.7%
- Change in incidence of nausea relative to placebo [2]: 25.7 % reduction
- Change in incidence of vomiting relative to placebo [2]: 20.1 % reduction
- Change in incidence of nausea relative to placebo (Example 1, Overall): 35.8% reduction
- Change in incidence of vomiting relative to placebo (Example 1, Overall): 52.8% reduction
- Nausea (incidence) [3]: 17.6%
- Vomiting (incidence) [3]: 15.4%
- Nausea (incidence) [4]: 17.6%
- Vomiting (incidence) [4]: 15.4%
- PID at each time point (compared with placebo): significantly lower than those in the placebo group
- SPID0-12 h after the first postoperative administration (compared with placebo): significantly lower than those in the placebo group
- SPID0-24 h after the first postoperative administration (compared with placebo): superior to that in the placebo group
- duration of analgesia (compared with placebo): significantly longer than those in the placebo group
- incidences of adverse reactions (compared with placebo): comparable to those in the placebo group
- incidences of adverse reactions (including nausea and vomiting) (compared with placebo): significantly lower than those in the placebo group
- incidences of the main TEAEs (including nausea and vomiting) (compared with placebo): significantly lower than those in the placebo group
- subject and investigator satisfaction scores for postoperative analgesia (compared with placebo): significantly higher than those in the placebo group
- time to the first use of rescue analgesic agents (compared with placebo): significantly longer than those in the placebo group
- effect on PONV in patients after abdominal surgery (summary of both Phase III studies (Example 1)): preventive and/or alleviating effect on PONV
- mean cumulative dosage of rescue analgesic agents [5]: significantly lower than those in the placebo group
- proportion of subjects with NRS scores ≤ 3 [5]: significantly higher than those in the placebo group
- mean cumulative dosage of antiemetic agents [6]: significantly lower than those in the placebo group
- proportion of subjects using antiemetic agents [6]: significantly lower than those in the placebo group
- proportion of subjects using rescue analgesic agents (within 0-24 h after the first postoperative administration, compared with placebo): significantly lower than those in the placebo group
